The subject of one assay is Human TLR7/8. As to the kind of experiment: Human PBMC cell-based assay, TLR7/8 stimulus (RNA-Ig), cytokine ELISA. As to conditions: primary human PBMC assay, TLR7/8 potency; ligand not given; read-out: Human PBMCs IC50. The method in brief:
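The agonist was RNA-Ig, a U1 snRNA-derived 26-mer RNA (2.5 μM) complexed with RNA-cross-reacting anti-ssDNA mAb (1:25 or 1 ug/ml), added after 30 min compound pre-incubation (0.1% DMSO). Density-gradient PBMC from healthy donors, 2×10^5/well, were stimulated 20 h at 37 °C; cytokines quantified by ELISA.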

The target in a further assay is T1, human TLR8 (Homo sapiens, UniProt Q9NR97).
T1 construct: host or cells: HEK-293, then stably transfected with pNiFty2(NF-kappaB)-luciferase reporter
T1 sequence (Q9NR97 27-1041): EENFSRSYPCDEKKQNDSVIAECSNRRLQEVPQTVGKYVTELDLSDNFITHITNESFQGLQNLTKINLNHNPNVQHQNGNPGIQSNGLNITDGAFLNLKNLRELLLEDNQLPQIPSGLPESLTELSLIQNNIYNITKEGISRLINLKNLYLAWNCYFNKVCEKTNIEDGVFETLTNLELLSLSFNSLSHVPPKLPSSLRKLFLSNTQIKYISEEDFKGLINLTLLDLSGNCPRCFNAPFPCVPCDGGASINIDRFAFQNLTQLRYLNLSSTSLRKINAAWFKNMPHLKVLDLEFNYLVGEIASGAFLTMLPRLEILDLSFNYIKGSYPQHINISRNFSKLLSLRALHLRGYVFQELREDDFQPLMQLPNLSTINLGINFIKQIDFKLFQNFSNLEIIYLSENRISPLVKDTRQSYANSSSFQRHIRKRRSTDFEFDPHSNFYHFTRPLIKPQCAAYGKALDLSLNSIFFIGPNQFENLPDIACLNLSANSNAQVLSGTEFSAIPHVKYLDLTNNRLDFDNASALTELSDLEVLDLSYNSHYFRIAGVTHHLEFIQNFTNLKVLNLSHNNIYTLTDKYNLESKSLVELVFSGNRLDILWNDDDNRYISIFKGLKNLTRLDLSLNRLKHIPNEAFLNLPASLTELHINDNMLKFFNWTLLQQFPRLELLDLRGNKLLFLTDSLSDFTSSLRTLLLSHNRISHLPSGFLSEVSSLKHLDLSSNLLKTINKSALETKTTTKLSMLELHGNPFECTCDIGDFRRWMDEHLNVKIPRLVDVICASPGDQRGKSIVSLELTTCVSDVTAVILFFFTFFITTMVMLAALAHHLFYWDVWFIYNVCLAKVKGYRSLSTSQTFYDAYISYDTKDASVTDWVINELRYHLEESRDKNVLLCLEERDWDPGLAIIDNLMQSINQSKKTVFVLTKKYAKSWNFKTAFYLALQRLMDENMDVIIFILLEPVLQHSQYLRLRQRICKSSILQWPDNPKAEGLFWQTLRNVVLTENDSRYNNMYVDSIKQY
The assay is described as follows: HEK-293 human TLR8 NF-kappaB luciferase reporter assay (CL097). As to conditions: HEK-293 assay format; read-out: HEK/hTLR8 IC50. Type of assay: cell-based. The protocol: Effects on mouse TLR7 were also compared. Cells were stimulated overnight with TLR7/8 agonist CL097 at pre-determined ED70-80: 3 ug/ml for HEK-hTLR7, 1.5 ug/ml for HEK-mTLR7 and 12 ug/ml for HEK-hTLR8, before reading luminescence intensity. Three tests were performed and IC50 value was determined using Graphpad Prism 6 nonlinear regression curve fit.
HEK-293 cells (ATCC) were engineered to stably express a NF-kappaB transcription factor inducible E-selectin (ELAM-1) luciferase reporter derived from the plasmid pGL3 (Promega) containing base pairs −2241 bp to −254 bp from the promoter of the human E-selectin gene (Accession No. NM_000450). These cells were then subsequently engineered to stably and individually express human TLR4, TLR7 or TLR9 full-length ORF cDNAs. Human TLR4 cDNA (Accession No. NM_138554) was cloned into pcDNA 3.0 expression vector (Invitrogen). TLR4 transfected cells were also engineered to express human MD-2 co-receptor [MD-2 cDNA (Accession No. NM_015364) was cloned into the pEF-BOS vector] and were supplemented with 10 nM soluble CD14 (R&D Systems) in the media to optimize LPS responsiveness. Human TLR9 cDNA (Accession No. NM_017442) was cloned into the pBluescript II KS vector (Agilent). Human TLR7 cDNA (Accession No. NM_016562) was obtained from OriGene. HEK-293 cells stably expressing human TLR8 (Accession No. NM_138636) or mouse TLR7 (Accession No. NM_133211) were purchased from InvivoGen and were then stably transfected with pNiFty2(NF-kappaB)-luciferase reporter plasmid (InvivoGen). Each cell type was plated in Dulbecco's modified Eagle's medium (DMEM) containing 10% fetal bovine serum (FBS) at a density of 2.22×10^5 cells/ml into a 384-well plate and incubated for 2 days at 37° C., 5% CO2. Varying concentrations of antagonist compounds were then added. Cells were then incubated for another 30 minutes before adding the appropriate TLR agonist as follows (final concentrations indicated): lipopolysaccharide (LPS; Sigma) at 10 ng/ml for TLR4, CL097 (InvivoGen) at 3 ug/ml for human TLR7 and TLR8 and mouse TLR7, and CvG-2006-2A [sequence: […] (SEQ ID NO: 1) with phosphorothioate backbone, synthesized by Sigma-Aldrich] at 0.6 uM for TLR9.

SMILES strings stand for the structures.

For `CC[C@@H]1CN(c2ccc(C#N)c3ncccc23)C[C@H](CO)O1` [ER-887199], the IC50 in the assay with Human TLR7/8 was 117 nM; on human TLR8, 77 nM.
Taken in the same sequence, the figures for `C[C@@H]1CN(c2ccc(C#N)c3ncccc23)C[C@H](CN2CCN(c3ccccc3)CC2)O1` [ER-887258] were 55 nM and 175 nM.
The matching figures for `CC(=O)N1CCN(C[C@H]2CN(c3ccc(C#N)c4ncccc34)C[C@@H](C)O2)CC1` [ER-887261]: 120 nM and 77 nM.
Take `C[C@@H]1CN(C[C@H]2CN(c3ccc(C#N)c4ncccc34)C[C@@H](C)O2)[C@H](C)CN1` [ER-887271]: the IC50 was determined as 2 nM in the assay with Human TLR7/8 and 1.6 nM at human TLR8.
For `C[C@@H]1CN(c2ccc(C#N)c3ncccc23)C[C@H](CN2C[C@H](C)NC[C@H]2C)O1` [ER-887272], the values for the IC50 in the assay on Human TLR7/8 and at human TLR8 were 2 nM and 2.9 nM, respectively.
The matching figures for `C[C@@H]1CN(c2ccc(C#N)c3ncccc23)C[C@H](CNC2CCC2)O1` [ER-887443]: 32 nM and 138 nM.
Taken in the same sequence, the figures for `C[C@@H]1CN(c2ccc(C#N)c3ncccc23)C[C@H](CNC2CCC(O)CC2)O1` (stereo partly drawn) [ER-887526] were 50 nM and 122 nM.
In the case of `C[C@@H]1CN(c2ccc(C#N)c3ncccc23)C[C@H](CNc2ccc(-c3ccccc3)cn2)O1` [ER-887538], the values for the IC50 with Human TLR7/8 and on human TLR8 were 48 nM and 85 nM, respectively.
Taken in the same sequence, the figures for `C[C@@H]1CN(c2ccc(C#N)c3ncccc23)C[C@H](CNc2ncccc2-c2ccccc2)O1` [ER-887540] were 1 nM and 3 nM.
The matching figures for `CCOc1cccnc1NC[C@H]1CN(c2ccc(C#N)c3ncccc23)C[C@@H](C)O1` [ER-887587]: 1 nM and 1.8 nM.
Taken in the same sequence, the figures for `C[C@@H]1CN(c2ccc(C#N)c3ncccc23)C[C@H](CNc2ccnc(-c3ccccc3)c2)O1` [ER-887588] were 1 nM and 0.5 nM.
With `C[C@@H]1CN(c2ccc(C#N)c3ncccc23)C[C@H](CN2CC(NC(=O)c3ccccc3)C2)O1` [ER-894594], the results for the IC50 in the assay with Human TLR7/8 and at human TLR8 were 87 nM and 116 nM, respectively.
